Assay results from US20240325364A1, “COMPOSITIONS FOR USE IN THE TREATMENT OF METABOLIC SYNDROME” (Nottingham Trent University, priority 2021, published 2024).
“Also recorded” adds a separate entry of the source.

Key:
[1] = system: C2C12 skeletal muscle cells; assay: Toxicity testing: C2C12 cell viability (Calcein AM fluorescence); type: cell-based; details: C2C12 myotubes cultured 5 days in GLT RPMI-1640 medium (28 mM glucose, 200 μM palmitic acid, 200 μM oleic acid) with 100 μM compound
Procedure: C2C12 muscle cell myotubes were cultured for 5 days in the following […] culture media: a control RPMI-1640 medium; glucolipotoxic (GLT) RPMI-1640 medium (28 mM glucose, 200 μM palmitic acid and 200 μM oleic acid) supplemented with 100 μM of M4; GLT RPMI-1640 medium supplemented with 100 µM of M8; GLT RPMI-1640 medium supplemented with 100 μM of M14; GLT RPMI-1640 medium supplemented with 100 μM of M28; and GLT RPMI-1640 medium supplemented with 100 μM of M38. Following culture, media were aspirated and cells washed 3 times in Krebs-Ringer buffer (KRB). A final concentration of […] Calcein AM Cell Viability Dye (ThermoFischer) in KRB was loaded for 1 h before washing again with KRB. Cell viability was measured via fluorescence, with excitation and emission at 490 nm and 520 nm, respectively.

[2] = system: C2C12 skeletal muscle cells; assay: Glucose uptake (2-deoxy glucose) in C2C12 skeletal muscle cells; type: cell-based; details: C2C12 cells 5 days in GLT DMEM medium with 100 μM compound; 100 nM insulin 1 h
Procedure: C2C12 skeletal muscle cell myotubes were cultured for 5 days in standard DMEM tissue culture media or GLT DMEM media. The media were either used without further supplementation (used as controls) or were independently supplemented with 100 μM of a compound (M4, M8, M14, M28, and M38 investigated). Myotubes were then serum-starved overnight in DMEM supplemented with 5 mM glucose, and thereafter incubated for 1 h in glucose-free DMEM or in glucose-free DMEM supplemented with 100 nM insulin stimulant. The media were thereafter replaced with phosphate buffered saline (PBS) containing 0.125 mM 2-deoxy glucose (2-DG). Glucose uptake reactions were conducted for 30 min, and then terminated by addition of stop buffer (0.4 M HCl+2% dodecyl trimethyl ammonium bromide). 2-deoxyglucose-6-phosphate (2DG6P) detection reagent was applied, and data were acquired using a CLARIOStar luminometer (BMG Labtech, Ortenberg, Germany).

[3] = system: C2C12 skeletal muscle cells; assay: Reactive species scavenging in C2C12 cells (DCFDA fluorescence); type: cell-based; details: C2C12 cells in GLT RPMI-1640 medium 5 days, 100 μM compound
Procedure: C2C12 muscle cell myotubes were cultured for 5 days in standard RPMI-1640 tissue culture media or GLT RPMI-1640 media. Corresponding media were independently supplemented with 100 μM of a compound (M4, M14, M8, M28, and M38 investigated). Non-supplemented standard and GLT RPMI-1640 media were also retained as controls. Cells were thereafter washed 3 times in KRB and 20 μM 2′,7′-dichlorofluorescein diacetate (DCFDA), a cell permeant fluorogenic dye that measures hydroxyl, peroxyl and other ROS, was loaded for 1 h. Reactive species detection was measured via fluorescence, with excitation at 495 nm and emission at 530 nm.

[4] = system: High fat-fed mice; assay: Effect on body weight in an in vivo model of obesity; details: high fat diet mice, 45 mg/kg body weight/day via drinking water, 10 weeks
Procedure: High fat-fed mice were used as an animal model of obesity. The body weights of the mice were monitored over a period of 10 weeks. The following three sets of mice were used in the study: • Non-high fat-fed mice that were administered a normal diet. • High fat-fed mice that were administered a high fat diet. • High fat-fed mice that were administered a high fat diet alongside 45 mg/kg body weight/day of compound M8, which was administered via drinking water.
High fat-fed mice were fed the following high fat diet from Research Diets: (60% fat; D12492). Non-high fat-fed mice were used as a control and were fed the following low fat diet from Research Diets: (10% fat, D12450B). The body weights of the mice were measured throughout.

Row | SMILES | cell viability (% change relative to control) [1] | insulin-stimulated glucose uptake per total cellular protein [2] | intracellular reactive species (% change relative to control) [3] | toxic effects on the animals [4] | body weight ([4]; vs high fat-fed mice without compound, 45 mg/kg/day)
1 | CNCc1cc(-c2ccccc2)no1 [M14, 5-[(methylamino)methyl]-3-phenylisoxazole] | none of the tested compounds (M4, M8, M14, M28, and M38) reduce C2C12 skeletal muscle cell viability; also recorded: non-toxic to the cells | reverse glucolipotoxic inhibition of insulin-stimulated glucose uptake | reduces GLT-associated reactive species levels |  | 
2 | NCc1cc(-c2ccccc2)no1 [M28, (3-phenyl-5-isoxazolyl)methanamine] | none of the tested compounds (M4, M8, M14, M28, and M38) reduce C2C12 skeletal muscle cell viability; also recorded: non-toxic to the cells | reverse glucolipotoxic inhibition of insulin-stimulated glucose uptake | reduces GLT-associated reactive species levels |  | 
3 | OCc1ccc(Cn2ccnc2)cc1 [M38, [4-(1H-imidazol-1-ylmethyl)phenyl]methanol] | none of the tested compounds (M4, M8, M14, M28, and M38) reduce C2C12 skeletal muscle cell viability; also recorded: non-toxic to the cells | reverse glucolipotoxic inhibition of insulin-stimulated glucose uptake | reduces GLT-associated reactive species levels |  | 
4 | CNCc1ccc(-c2ccco2)nc1 [M8, 6-(2-furanyl)-N-methyl-3-pyridinemethanamine] | none of the tested compounds (M4, M8, M14, M28, and M38) reduce C2C12 skeletal muscle cell viability; also recorded: non-toxic to the cells | reverse glucolipotoxic inhibition of insulin-stimulated glucose uptake | reduces GLT-associated reactive species levels | no toxic effects on the animals | significantly reduces the body weight; also recorded: significant reduction of body weight
5 | FC(F)(F)c1ccc(-n2ccnc2)nc1 [M4, 2-(1H-imidazol-1-yl)-5-(trifluoromethyl)pyridine] | none of the tested compounds (M4, M8, M14, M28, and M38) reduce C2C12 skeletal muscle cell viability; also recorded: non-toxic to the cells | reverse glucolipotoxic inhibition of insulin-stimulated glucose uptake | reduces GLT-associated reactive species levels |  | 
